Laboratory results as given in publication PMC13230610, “Fast analysis and engineering of protein function by microbe-independent deep assembly and screening” (Molecular Systems Biology, 2026).

Legend:
[1] = system: T1, ACh-NeuBI0.5 (engineered OpuBC fused with SmBiT/LgBiT and mScarlet-I); test: bioluminescence dose-response of indicator expressed on HEK293A cells; assay type: cell-based, Homo sapiens (HEK293A cells)
T1 construct: mScarlet-I at N-terminus of OpuBC (30-106)-linker 1 (Phe)-SmBiT (∆C3)-LgBiT-OpuBC (107-305)

[2] = system: T2, ACh-NeuBI1b (ACh-NeuBI0.5 QAE; engineered OpuBC fused with SmBiT/LgBiT and mScarlet-I); test: bioluminescence dose-response in HEK293A cells; also purified protein responded; assay type: cell-based, Homo sapiens (HEK293A cells)
T2 construct: ACh-NeuBI0.5 QAE

Compound	Kd [1]	Kd [2]
CC(=O)OCC[N+](C)(C)C [acetylcholine]	898 µM	188 µM
C[N+](C)(C)CCO [choline]	11000 µM	–
